Read-outs that look alike come from different tables or passages of the source.
Tests used:
Format in all cases: cell-based
[1] = test system: FH-R: DSB resistant HIV-1 strain; test: Anti-HIV activity against DSB resistant HIV-1 strain (FIG. 2)
Text: (§1) (PI-R: A multiple HIV-1 protease inhibitor resistant strain. FH-R: DSB resistant HIV-1 strain. FH=DSB).
(§2) FIG. 2 graphically illustrates that multiple protease inhibitor resistant strains of HIV-1 and DSB resistant HIV-1 are sensitive to Compound 12 (LH55-1). PI-R indicates a multiple HIV-1 protease inhibitor resistant strain of HIV-1, and FH-R indicates a DSB resistant HIV-1 strain (FH=DSB).

[2] = test system: PI-R: A multiple HIV-1 protease inhibitor resistant strain; test: Anti-HIV activity against multiple protease inhibitor resistant HIV-1 strain (FIG. 1, FIG. 2)
Text: (§3) FIG. 1: Anti-HIV activity of N-[3-β-O-(3′,3′-dimethylsuccinyl)-lup-20(29)-en-28-oyl]-11-aminoundecanoic acid (LH 55-1). PI-R: A multiple HIV-1 protease inhibitor resistant strain. RT-R: A multiple HIV-1 reverse transcriptase inhibitor resistant strain. NL4-3: A T-cell line adapted HIV-1 strain. NL4-3/AZT: The effect of the 1st anti-HIV drug AZT on the NL4-3 virus.
as §1
(§4) FIG. 1 graphically illustrates the anti-HIV activity of Compound 12 (also called compound LH 55-1). In FIG. 1, PI-R represents a multiple HIV-1 protease inhibitor resistant strain of HIV-1. RT-R represents a multiple HIV-1 reverse transcriptase inhibitor resistant strain of HIV-1; NL4-3 represents a T-cell line adapted HIV-1 strain; and NL4-3/AZT represents the effect of AZT on the NL4-3 virus.
as §2

[3] = test system: HIV-1 envelope-mediated membrane fusion (COS cells expressing NL4-3 envelope glycoproteins and Hela cells expressing CD4 and CXCR4); test: Cell-cell fusion assay (HIV-1 entry, FIG. 3)
Description: FIG. 3. LH55-1 (compound 12) and compound 9 inhibit HIV-1 entry. Fusion between COS cells expressing NL4-3 envelope glycoproteins and Hela cells expressing CD4 and CXCR4 were performed in the presence of compound 9, 12 and T20 as indicated in the figure.
To determine the mechanisms of action, the ability of LH55-1 and compound 9 to inhibit HIV-1 entry were analyzed by using a cell-cell fusion assay. Inhibition of HIV-1 envelope-mediated membrane fusion will prevent HIV-1 from entering into the cells. […] T20 is a polypeptide fusion inhibitor recently approved for anti-HIV-1 therapy by FDA, USA.

[4] = test system: HIV-1 maturation (processing of P25 into p24); test: Inhibition of viral maturation, Western blot of viral particles from ACH-2 cells (FIG. 4)
Text: FIG. 4. LH55-1 (compound 12) inhibits HIV-1 maturation. HIV-1 viral particles produced from ACH-2 cells in the absence (A) or presence (B) of LH55-1. The collected viral samples were lysed and analyzed by using a Western blot. The primary antibody used for the Western blot is a HIV-1 positive human serum. Mw: Molecular weight standards.
P24 is the capsid protein of HIV-1 and is essential for viral infectivity. P25 is the precursor of p24. Inhibition of the processing of P25 into p24 will result in an immature viral particle without infectivity. […] Further studies in our laboratory indicate that the amino acids at the C-terminus of P24 are critical determinant for the drug sensitivity. The anti-HIV-1 maturation activity of LH55-1 is different from that of HIV-1 protease inhibitors since maturation of other HIV-1 gag proteins such as P17 in not affected by LH55-1.

[5] = test system: RT-R: A multiple HIV-1 reverse transcriptase inhibitor resistant strain; test: Anti-HIV activity against multiple reverse transcriptase inhibitor resistant HIV-1 strain (FIG. 1)
Text: as §3, §4

Structure (SMILES) | sensitivity of virus to compound [1] | anti-HIV activity / sensitivity of virus to compound [2] | anti-HIV-1 entry activity [3] | maturation of other HIV-1 gag proteins such as P17 [4] | processing of P25 into p24 (virion maturation) ([4]; viral particles from ACH-2 cells) | sensitivity of virus to compound ([1]; listed as LH55-1) | concentration blocking HIV-1 envelope-mediated membrane fusion [3] | anti-HIV activity [5] | anti-HIV activity / sensitivity of virus to compound ([2]; listed as Compound 12) | anti-HIV activity / sensitivity of virus to compound ([2]; listed as LH55-1)
C=C(C)C1CC[C@]2(C(=O)O)CC[C@]3(C)[C@H](CCC4[C@@]5(C)CCC(OC(=O)CC(C)(C)C(=O)O)C(C)(C)[C@@H]5CC[C@]43C)[C@@H]12 (stereo partly shown) [DSB, reference compound] | resistant | resistant |  |  |  |  |  |  |  | 
C=C(C)[C@@H]1CC[C@]2(C(=O)NC(CC(C)C)C(=O)O)CC[C@]3(C)[C@H](CCC4[C@@]5(C)CC[C@H](OC(=O)CC(C)(C)C(=O)O)C(C)(C)[C@@H]5CC[C@]43C)[C@@H]12 (stereo partly drawn) [compound 9, N-[3-β-O-(3′,3′-dimethylsuccinyl)-lup-20(29)-en-28-oyl]-L-leucine] |  |  | exhibited anti-HIV-1 entry activity, albeit at higher concentrations than compound 12 |  |  |  |  |  |  | 
C=C(C)[C@@H]1CC[C@]2(C(=O)NCCCCCCCCCCC(=O)O)CC[C@]3(C)[C@H](CC[C@@H]4[C@@]5(C)CC[C@H](OC(=O)CC(C)(C)C(=O)O)C(C)(C)[C@@H]5CC[C@]43C)[C@@H]12 [compound 12, N-[3-β-O-(3′,3′-dimethylsuccinyl)-lup-20(29)-en-28-oyl]-11-aminoundecanoic acid] | sensitive | substantial antiviral activity | potent HIV-1 entry inhibitor | not affected | accumulation of P25 | very sensitive | sub-micromolar | substantial antiviral activity | sensitive | very sensitive
